Results as given in PubChem BioAssay (NCI).
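48-hour exposure; five concentrations; linearly interpolated endpoints. GI50 marks 50% less growth. Definition used: TGI = concentration required for complete inhibition of growth.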

Columns and labels:
Experiment in all cases: NCI anticancer screen, dose series, 48 h
NCI-H23 lung = tested on: NCI-H23 lung
NCI-H460 lung = tested on: NCI-H460 lung
NCI-H522 lung = tested on: NCI-H522 lung
NCI/ADR-RES ovarian = tested on: NCI/ADR-RES ovarian
OVCAR-3 ovarian = tested on: OVCAR-3 ovarian
OVCAR-4 ovarian = tested on: OVCAR-4 ovarian
OVCAR-5 ovarian = tested on: OVCAR-5 ovarian
OVCAR-8 ovarian = tested on: OVCAR-8 ovarian
PC-3 prostate = tested on: PC-3 prostate
RPMI-8226 leukemia = tested on: RPMI-8226 leukemia
RXF 393 renal = tested on: RXF 393 renal
SF-268 CNS = tested on: SF-268 CNS
SF-295 CNS = tested on: SF-295 CNS
SF-539 CNS = tested on: SF-539 CNS
SK-MEL-2 melanoma = tested on: SK-MEL-2 melanoma
SK-MEL-28 melanoma = tested on: SK-MEL-28 melanoma
SK-MEL-5 melanoma = tested on: SK-MEL-5 melanoma
SK-OV-3 ovarian = tested on: SK-OV-3 ovarian
SN12C renal = tested on: SN12C renal
SNB-19 CNS = tested on: SNB-19 CNS
SNB-75 CNS = tested on: SNB-75 CNS
SR leukemia = tested on: SR leukemia
SW-620 colon = tested on: SW-620 colon
T-47D breast = tested on: T-47D breast
TK-10 renal = tested on: TK-10 renal
U251 CNS = tested on: U251 CNS
UACC-257 melanoma = tested on: UACC-257 melanoma
UACC-62 melanoma = tested on: UACC-62 melanoma
UO-31 renal = tested on: UO-31 renal

## c1cc[n+](C2c3ccccc3C([n+]3ccccc3)c3ccccc32)cc1 (stereo not drawn)
NCI-H23 lung
  GI50: 5.11 µM
  TGI: > 52.4 µM
NCI-H460 lung
  GI50: 21.1 µM
  TGI: > 89.4 µM
NCI-H522 lung
  GI50: 4.67 µM
  TGI: 30.7 µM
NCI/ADR-RES ovarian
  GI50: > 100 µM
  TGI: > 100 µM
OVCAR-3 ovarian
  GI50: 14.1 µM
  TGI: > 77 µM
OVCAR-4 ovarian
  GI50: 18.4 µM
  TGI: > 100 µM
OVCAR-5 ovarian
  GI50: 26.7 µM
  TGI: > 100 µM
OVCAR-8 ovarian
  GI50: 6.23 µM
  TGI: > 100 µM
PC-3 prostate
  GI50: 4.8 µM
  TGI: > 100 µM
RPMI-8226 leukemia
  GI50: 6.96 µM
  TGI: > 86.4 µM
RXF 393 renal
  GI50: 19.5 µM
  TGI: 86.2 µM
SF-268 CNS
  GI50: 2130 nM
  TGI: 11.8 µM
SF-295 CNS
  GI50: 4.2 µM
  TGI: 80.9 µM
SF-539 CNS
  GI50: 2590 nM
  TGI: 17.3 µM
SK-MEL-2 melanoma
  GI50: 15 µM
  TGI: > 66.4 µM
SK-MEL-28 melanoma
  GI50: 5.92 µM
  TGI: > 44.5 µM
SK-MEL-5 melanoma
  GI50: 7.91 µM
  TGI: 23.2 µM
SK-OV-3 ovarian
  GI50: 52.5 µM
  TGI: > 100 µM
SN12C renal
  GI50: 3.39 µM
  TGI: 25.4 µM
SNB-19 CNS
  GI50: 4.13 µM
  TGI: 42.8 µM
SNB-75 CNS
  GI50: 1130 nM
  TGI: 3.15 µM
SR leukemia
  GI50: 7.64 µM
  TGI: > 100 µM
SW-620 colon
  GI50: 8.52 µM
  TGI: > 100 µM
T-47D breast
  GI50: 10.1 µM
  TGI: 79.6 µM
TK-10 renal
  GI50: 19.2 µM
  TGI: > 100 µM
U251 CNS
  GI50: 3.14 µM
  TGI: > 90.8 µM
UACC-257 melanoma
  GI50: 5.93 µM
  TGI: 37 µM
UACC-62 melanoma
  GI50: 11.3 µM
  TGI: 28.7 µM
UO-31 renal
  GI50: > 100 µM
  TGI: > 100 µM
